Source: PubChem BioAssay AID1963443 (Molecular Pharmacology Branch, DTP, NCI, 2024)

System: MDA-MB-231 complex spheroids, growth inhibition
Assay: Anticancer human tumor MDA-MB-231 cell line growth inhibition [Asc];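 also: spheroids exposed to compounds for 7 days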
Details: for IC50: curve of first compound; for viability, T/C: stronger effect = lower value
In short: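 Concentration series start at each agent's clinical Cmax, or at 10 microM when none is established, and drop in half-log steps; agents are applied alone or together to complex spheroids built with HUVEC and hMSC.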

[1] = second compound 0.03 µM, first compound 0.000316 µM
[2] = second compound 0.03 µM, first compound 0.001 µM
[3] = second compound 0.03 µM, first compound 0.00316 µM
[4] = second compound 0.03 µM, first compound 0.01 µM
[5] = second compound 0.03 µM, first compound 0.0316 µM
[6] = second compound 0.03 µM, first compound 0.1 µM
[7] = second compound 0.0949 µM, first compound 0.000316 µM
[8] = second compound 0.0949 µM, first compound 0.001 µM
[9] = second compound 0.0949 µM, first compound 0.00316 µM
[10] = second compound 0.0949 µM, first compound 0.01 µM
[11] = second compound 0.0949 µM, first compound 0.0316 µM
[12] = second compound 0.0949 µM, first compound 0.1 µM
[13] = second compound 0.3 µM, first compound 0.000316 µM
[14] = second compound 0.3 µM, first compound 0.001 µM
[15] = second compound 0.3 µM, first compound 0.00316 µM
[16] = second compound 0.3 µM, first compound 0.01 µM
[17] = second compound 0.3 µM, first compound 0.0316 µM
[18] = second compound 0.3 µM, first compound 0.1 µM
[19] = second compound 0.949 µM, first compound 0.000316 µM
[20] = second compound 0.949 µM, first compound 0.001 µM
[21] = second compound 0.949 µM, first compound 0.00316 µM
[22] = second compound 0.949 µM, first compound 0.01 µM
[23] = second compound 0.949 µM, first compound 0.0316 µM
[24] = second compound 0.949 µM, first compound 0.1 µM
[25] = second compound 3 µM, first compound 0.000316 µM
[26] = second compound 3 µM, first compound 0.001 µM
[27] = second compound 3 µM, first compound 0.00316 µM
[28] = second compound 3 µM, first compound 0.01 µM
[29] = second compound 3 µM, first compound 0.0316 µM
[30] = second compound 3 µM, first compound 0.1 µM

Compound	IC50 (second compound 0.03 µM)	IC50 (second compound 0.0949 µM)	IC50 (second compound 0.3 µM)	IC50 (second compound 0.949 µM)	IC50 (second compound 3 µM)	viability, T/C [3]	viability, T/C [4]	viability, T/C [5]	viability, T/C [6]	viability, T/C [9]	viability, T/C [10]	viability, T/C [11]	viability, T/C [12]	viability, T/C [15]	viability, T/C [16]	viability, T/C [17]	viability, T/C [18]	viability, T/C [21]	viability, T/C [22]	viability, T/C [23]	also measured
Cn1ncnc1[C@H]1c2n[nH]c(=O)c3cc(F)cc(c23)N[C@@H]1c1ccc(F)cc1 + CCN1C(C(=O)NC23CCC(C(=O)O)(CC2)CC3)C(c2cccc(Cl)c2F)C2(C(=O)Nc3cc(Cl)ccc32)C12CCCCC2	> 100 nM	> 100 nM	> 100 nM	> 100 nM	> 100 nM	90.4%	96.2%	85%	86%	93.6%	95.9%	90.2%	88.4%	98.5%	102%	89.8%	85.4%	102%	97.8%	93.6%	viability, T/C [1]: 101%; viability, T/C [2]: 96.3%; viability, T/C [7]: 112%; viability, T/C [8]: 101%; viability, T/C [13]: 110%; viability, T/C [14]: 110%; viability, T/C [19]: 108%; viability, T/C [20]: 109%; viability, T/C [24]: 91.8%; viability, T/C [25]: 100%; viability, T/C [26]: 99.4%; viability, T/C [27]: 94.4%; viability, T/C [28]: 91.8%; viability, T/C [29]: 82%; viability, T/C [30]: 87.8%
NC1CCC(NC2CC2c2ccccc2)CC1 (stereo not given) + CCN1C(C(=O)NC23CCC(C(=O)O)(CC2)CC3)C(c2cccc(Cl)c2F)C2(C(=O)Nc3cc(Cl)ccc32)C12CCCCC2	> 100 nM	> 100 nM	> 100 nM	> 100 nM	> 100 nM	93.4%	95.2%	91.8%	96.2%	101%	101%	100%	102%	101%	102%	102%	105%	105%	105%	104%	viability, T/C [1]: 91.2%; viability, T/C [2]: 94.5%; viability, T/C [7]: 101%; viability, T/C [8]: 103%; viability, T/C [13]: 102%; viability, T/C [14]: 104%; viability, T/C [19]: 105%; viability, T/C [20]: 105%; viability, T/C [24]: 106%; viability, T/C [25]: 90%; viability, T/C [26]: 91%; viability, T/C [27]: 89.8%; viability, T/C [28]: 88.2%; viability, T/C [29]: 87.5%; viability, T/C [30]: 89.2%
COc1c(OCCCN2CCOCC2)ccc2c3n(c(=NC(=O)c4cnc(N)nc4)nc12)CCN3 + CCN1C(C(=O)NC23CCC(C(=O)O)(CC2)CC3)C(c2cccc(Cl)c2F)C2(C(=O)Nc3cc(Cl)ccc32)C12CCCCC2	81.4 nM	79.3 nM	86.9 nM	90.8 nM	31.4 nM	87.7%	81.5%	61.5%	49.7%	102%	78.7%	63.4%	47.8%	99.3%	88.2%	65.2%	49.9%	100%	85.9%	66.4%	viability, T/C (second compound 0.03 µM, first compound 0.316 µM): 34.6%; viability, T/C (second compound 0.03 µM, first compound 1 µM): 33.8%; viability, T/C (second compound 0.0949 µM, first compound 0.316 µM): 34.3%; viability, T/C (second compound 0.0949 µM, first compound 1 µM): 32.3%; viability, T/C (second compound 0.3 µM, first compound 0.316 µM): 34.7%; viability, T/C (second compound 0.3 µM, first compound 1 µM): 33.5%; viability, T/C [24]: 49%; viability, T/C (second compound 0.949 µM, first compound 0.316 µM): 37%; viability, T/C (second compound 0.949 µM, first compound 1 µM): 34.1%; viability, T/C [27]: 83.3%; viability, T/C [28]: 67.6%; viability, T/C [29]: 50.1%; viability, T/C [30]: 39.3%; viability, T/C (second compound 3 µM, first compound 0.316 µM): 31.2%; viability, T/C (second compound 3 µM, first compound 1 µM): 34.1%
